Reference: US8748608B2, “4-phenylpiperazine derivatives with functionalized linkers as dopamine D3 receptor selective ligands and methods of use” (The United States of America as Represented by the …, priority 2007, dated 2014)
Structures can show the parent of a compound that is named as a salt. Where two headings read alike, the source gives them in different places.

Assays:
[1] = target: human dopamine D2-long (D2) receptor (Homo sapiens (Human), UniProt P14416); experiment: Human D2-like receptor competition binding in HEK cells, D2; conditions: hD2L
Chain of human dopamine D2-long (D2) receptor (P14416 whole entry): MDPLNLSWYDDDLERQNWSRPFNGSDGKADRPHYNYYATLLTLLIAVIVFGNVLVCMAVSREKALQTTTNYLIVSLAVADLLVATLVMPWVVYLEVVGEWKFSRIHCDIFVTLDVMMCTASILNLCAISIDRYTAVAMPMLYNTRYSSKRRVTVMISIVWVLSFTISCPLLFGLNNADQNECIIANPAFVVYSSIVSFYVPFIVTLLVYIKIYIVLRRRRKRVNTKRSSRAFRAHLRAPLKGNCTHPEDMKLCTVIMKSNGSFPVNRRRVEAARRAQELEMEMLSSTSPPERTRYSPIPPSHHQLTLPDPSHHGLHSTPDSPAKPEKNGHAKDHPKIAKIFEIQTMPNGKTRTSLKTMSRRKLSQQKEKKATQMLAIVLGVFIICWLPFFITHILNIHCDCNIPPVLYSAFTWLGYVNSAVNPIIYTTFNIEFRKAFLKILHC
Text: (§1) Human dopamine D2-long (D2) and D3 (D3) receptors were expressed in HEK cells. In brief, stably transfected HEK cells expressing the human D2-long and the D3 dopamine receptor were developed using the pIRES bicistronic expression vector (CLONTECH; Palo Alto, Calif.). […] For comparison, human dopamine D4 (D4) receptors were obtained from HEK 293 cells stably transfected with a PCR product of a human cDNA coding for the D4.4 form of the human D4 dopamine receptor.
(§2) The procedures to determine the binding affinities at the human dopamine D2-like receptors, the binding affinities at the serotonin 5HT1A, 5HT2A and 5HT2c receptors and functional mitogenesis assay are known in the art. […] Both of these references are incorporated by reference.

[2] = target: D2 receptor (human) in CHOp-cells (Homo sapiens (Human), UniProt P14416); experiment: D2 inhibition of quinpirole stimulation of mitogenesis (antagonist assay); type: cell-based; conditions: inhibition of 30 nM quinpirole stimulated mitogenesis, read-out: IC50 ± S.E.M., D2
Chain of D2 receptor (human) in CHOp-cells (P14416 whole entry): as above
Protocol: (§3) The cells were incubated at 37° C. in α-MEM with 10% FBS, 0.05% penicillin-streptomycin, and 200 μg/mL of G418. After 48 hours, the cells were rinsed twice with serum-free α-MEM and incubated for 24 hours at 37° C. In the functional assay for agonism, the medium was removed and replaced with 90 μl of serum-free α-MEM and 10 μl of test compound in sterile water; in the antagonist assay, the test compound was diluted in sterile water plus 30 nM quinpirole. After another 24-hour incubation at 37° C., 0.25 μCi of [^3H]thymidine was added to each well and the plates were further incubated for 2 hours at 37° C. The cells were then trypsinized, and the plates were filtered and counted as usual in the art. Quinpirole was run on every plate as an internal standard.
as §2

[3] = target: human dopamine D3 receptor (Homo sapiens (Human), UniProt P35462); experiment: Human D2-like receptor competition binding in HEK cells, D3; conditions: for D2/D3: ratio of Ki at D2 over Ki at D3
Chain of human dopamine D3 receptor (P35462 whole entry): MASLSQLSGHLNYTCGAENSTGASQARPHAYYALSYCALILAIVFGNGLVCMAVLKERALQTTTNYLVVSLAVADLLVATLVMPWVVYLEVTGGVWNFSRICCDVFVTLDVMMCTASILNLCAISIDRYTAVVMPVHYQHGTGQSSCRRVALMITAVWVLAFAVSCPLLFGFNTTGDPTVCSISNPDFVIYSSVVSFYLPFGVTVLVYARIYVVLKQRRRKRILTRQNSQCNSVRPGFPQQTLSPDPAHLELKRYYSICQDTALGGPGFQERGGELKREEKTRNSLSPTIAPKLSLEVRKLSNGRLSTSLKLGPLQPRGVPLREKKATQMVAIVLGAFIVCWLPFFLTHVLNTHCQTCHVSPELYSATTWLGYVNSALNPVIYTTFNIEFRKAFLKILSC
Text: as §1, §2

[4] = target: T1, human dopamine D3 receptors in CHO cells (Homo sapiens (Human), UniProt P35462); experiment: D3 inhibition of quinpirole stimulation of mitogenesis (antagonist assay); type: cell-based; conditions: inhibition of 30 nM quinpirole stimulated mitogenesis, CHOp cells; read-out: IC50 ± S.E.M., D3
T1 sequence (P35462 whole entry): as above
Protocol: as §3, §2

[5] = target: human D4.4 dopamine receptor (Homo sapiens (Human), UniProt P21917); experiment: Human D2-like receptor competition binding in HEK cells, D4; conditions: for Ki: HEK 293 cells, hD4.4; for D4/D3 Ki ratio: head printed D4/D2, values correspond to D4 Ki over D3 Ki
Chain of human D4.4 dopamine receptor (P21917 whole entry): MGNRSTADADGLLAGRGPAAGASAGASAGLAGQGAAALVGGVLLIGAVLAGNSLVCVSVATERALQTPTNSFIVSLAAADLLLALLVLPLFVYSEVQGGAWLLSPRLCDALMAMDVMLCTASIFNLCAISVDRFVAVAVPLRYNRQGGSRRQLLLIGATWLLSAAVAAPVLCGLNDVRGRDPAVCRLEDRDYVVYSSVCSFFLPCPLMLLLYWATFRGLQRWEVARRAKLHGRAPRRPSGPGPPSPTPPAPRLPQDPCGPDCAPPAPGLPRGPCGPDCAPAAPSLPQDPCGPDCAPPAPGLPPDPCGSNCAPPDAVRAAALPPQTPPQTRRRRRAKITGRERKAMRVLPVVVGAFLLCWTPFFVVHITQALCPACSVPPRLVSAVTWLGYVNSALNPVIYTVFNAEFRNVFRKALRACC
Text: as §1, §2

serotonin 5HT2A receptor = serotonin 5HT2A receptor (Homo sapiens (Human), UniProt P28223); experiment: Serotonin receptor binding, 5HT2A; conditions: ratio of affinities
Chain of serotonin 5HT2A receptor (P28223 whole entry): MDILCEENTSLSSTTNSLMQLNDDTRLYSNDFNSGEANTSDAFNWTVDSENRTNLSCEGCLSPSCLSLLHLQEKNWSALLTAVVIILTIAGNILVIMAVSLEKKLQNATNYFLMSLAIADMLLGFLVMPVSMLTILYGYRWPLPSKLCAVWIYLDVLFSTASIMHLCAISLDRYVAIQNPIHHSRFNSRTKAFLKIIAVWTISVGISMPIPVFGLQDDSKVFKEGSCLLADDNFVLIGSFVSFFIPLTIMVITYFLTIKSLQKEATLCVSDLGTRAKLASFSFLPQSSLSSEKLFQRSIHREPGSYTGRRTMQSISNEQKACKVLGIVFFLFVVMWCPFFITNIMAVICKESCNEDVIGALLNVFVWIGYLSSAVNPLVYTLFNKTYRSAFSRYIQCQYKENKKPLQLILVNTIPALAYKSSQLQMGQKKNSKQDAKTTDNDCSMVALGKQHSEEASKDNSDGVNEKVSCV
Text: as §2

serotonin 5HT1A receptor = serotonin 5HT1A receptor (Homo sapiens (Human), UniProt P08908); experiment: Serotonin receptor binding, 5HT1A; conditions: ratio of affinities
Chain of serotonin 5HT1A receptor (P08908 whole entry): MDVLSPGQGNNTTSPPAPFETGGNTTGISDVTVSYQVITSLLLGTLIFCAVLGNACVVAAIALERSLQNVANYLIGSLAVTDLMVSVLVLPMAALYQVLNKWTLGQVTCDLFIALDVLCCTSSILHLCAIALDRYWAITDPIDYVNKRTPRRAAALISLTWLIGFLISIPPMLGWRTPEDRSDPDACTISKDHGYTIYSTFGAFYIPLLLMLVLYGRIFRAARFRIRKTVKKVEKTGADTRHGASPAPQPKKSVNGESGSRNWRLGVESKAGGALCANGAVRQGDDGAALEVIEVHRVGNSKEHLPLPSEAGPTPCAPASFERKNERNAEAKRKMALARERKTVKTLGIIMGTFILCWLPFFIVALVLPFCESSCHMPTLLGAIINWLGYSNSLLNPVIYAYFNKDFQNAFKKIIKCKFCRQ
Text: (§4) The procedures to determine the binding affinities at the human dopamine D2-like receptors, the binding affinities at the serotonin 5HT1A, 5HT2A and 5HT2c receptors and functional mitogenesis assay are known in the art. See J. Med. Chem. 2005, 48, 839-848. See also, NIDA Research Monograph #178, Proceedings of the College of Drug Dependence, p. 440-466, 1998. Both of these references are incorporated by reference.

[6] = target: T1, human dopamine D3 receptors in CHO cells; experiment: D3 stimulation of mitogenesis (agonist assay); type: cell-based; conditions: CHOp cells; for EC50: read-out: partial agonist activity: EC50, D3 (converted)
Protocol: as §3, §4

serotonin 5HT2c receptor = serotonin 5HT2c receptor (Homo sapiens (Human), UniProt P28335); experiment: Serotonin receptor binding, 5HT2c; conditions: ratio of affinities, 5HT2c over D3
Chain of serotonin 5HT2c receptor (P28335 33-458): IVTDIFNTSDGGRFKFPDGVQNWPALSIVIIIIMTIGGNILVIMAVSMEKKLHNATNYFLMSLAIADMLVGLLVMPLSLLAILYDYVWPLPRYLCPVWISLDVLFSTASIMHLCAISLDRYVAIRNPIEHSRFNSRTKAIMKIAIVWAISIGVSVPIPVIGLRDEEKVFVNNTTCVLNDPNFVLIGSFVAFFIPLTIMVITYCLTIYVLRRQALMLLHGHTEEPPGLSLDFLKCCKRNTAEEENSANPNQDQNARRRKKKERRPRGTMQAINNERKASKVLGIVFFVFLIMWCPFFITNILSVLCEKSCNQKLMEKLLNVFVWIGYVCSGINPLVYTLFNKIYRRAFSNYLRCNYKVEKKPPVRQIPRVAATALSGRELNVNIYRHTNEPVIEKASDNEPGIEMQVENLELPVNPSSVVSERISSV
Text: as §2

[7] = HEK cells, hD3, read-out: D3 Ki
[8] = Table 3, unit inferred, with spread, read-out: D3 binding affinity

Row | Compound | Ki [1] | Ki [3, 7] | D2/D3 [3] | also measured
1 | COc1ccccc1N1CCN(CCCCNC(=O)c2ccc3c(c2)Cc2ccccc2-3)CC1 (as salt: hydrochloride) [Compound 7, N-(4-(4-(2-Methoxyphenyl)piperazin-1-yl)butyl)-9H-fluorene-2-carboxamide] | – | – | – | melting point: 208 to 210 °C
2 | COc1ccccc1N1CCN(C/C=C/CNC(=O)c2ccc(-c3ccccn3)cc2)CC1 (as salt: hydrochloride) [Compound 14, N-(4-(4-(2-Methoxy-phenyl)-piperazin-1-yl)-trans-but-2-enyl)-4-pyridin-2-yl-benzamide] | – | – | – | melting point: 168 to 170 °C
3 | COc1ccccc1N1CCN(C/C=C/CNC(=O)c2ccc3c(c2)Cc2ccccc2-3)CC1 (as salt: hydrochloride) [Compound 15, N-(4-(4-(2-methoxyphenyl)piperazin-1-yl)-trans-but-2-enyl)-9H-fluorene-2-carboxamide] | – | – | – | melting point: 224 to 226 °C
4 | O=C(NC/C=C/CN1CCN(c2cccc(Cl)c2Cl)CC1)c1ccc(-c2cccc(=O)[nH]2)cc1 (as salt: oxalate) [Compound 9, N-(4-(4-(2,3-Dichloro-phenyl)-piperazin-1-yl)-trans-but-2-enyl)-4-(6-oxo-1,6-dihydro-pyridin-2-yl)-benzamide] | – | – | – | melting point: 153 to 154 °C
5 | Cc1cccc(-c2ccc(C(=O)NC/C=C/CN3CCN(c4cccc(Cl)c4Cl)CC3)cc2)n1 (as salt: oxalate) [Compound 10, N-(4-(4-(2,3-Dichloro-phenyl)-piperazin-1-yl)-trans-but-2-enyl)-4-(6-methyl-pyridin-2-yl)-benzamide] | – | – | – | melting point: 125 to 126 °C
6 | O=C(NC/C=C/CN1CCN(c2cccc(Cl)c2Cl)CC1)c1ccc(-c2cccc[n+]2[O-])cc1 (as salt: oxalate) [Compound 12, N-(4-(4-(2,3-Dichloro-phenyl)-piperazin-1-yl)-trans-but-2-enyl)-4-(pyridin-N-oxide-2-yl)-benzamide] | – | – | – | melting point: 153 to 154 °C
7 | O=C(NCCC(O)CN1CCN(c2cccc(Cl)c2Cl)CC1)c1ccc2c(c1)Cc1ccccc1-2 (stereo not shown) (as salt: oxalate) [Compound 17] | – | – | – | melting point: 188 to 190 °C
8 | O=C(NC/C=C/CN1CCN(c2cccc(Cl)c2Cl)CC1)c1ccc(-c2cccc(=O)[nH]2)cc1 [Compound 9, N-(4-(4-(2,3-Dichloro-phenyl)-piperazin-1-yl)-trans-but-2-enyl)-4-(6-oxo-1,6-dihydro-pyridin-2-yl)-benzamide] | 23.6 nM | 0.6 nM | – | IC50 [2]: 41 ± 8 nM; Ki [3, 8]: 0.6 ± 0.1 nM
9 | O=C(NC/C=C/C[N+]1([O-])CCN(c2cccc(Cl)c2Cl)CC1)c1ccc(-c2ccccn2)cc1 [Compound 13, 4-(2,3-Dichlorophenyl)-1-(4-(4-(pyridin-2-yl)benzamido)-trans-but-2-enyl)-piperazine 1-oxide] | 1160 nM | 49.2 nM | 24 | –
10 | COc1ccccc1N1CCN(C/C=C/CNC(=O)c2ccc(-c3ccccn3)cc2)CC1 [Compound 14, N-(4-(4-(2-Methoxy-phenyl)-piperazin-1-yl)-trans-but-2-enyl)-4-pyridin-2-yl-benzamide] | – | 2.9 nM | – | Ki [3, 8]: 2.9 ± 1.1 nM; IC50 [4]: 42.6 ± 7.9 nM
11 | COc1ccccc1N1CCN(C/C=C/CNC(=O)c2ccc3c(c2)Cc2ccccc2-3)CC1 [Compound 15, N-(4-(4-(2-methoxyphenyl)piperazin-1-yl)-trans-but-2-enyl)-9H-fluorene-2-carboxamide] | 48.4 nM | – | – | IC50 [2]: 179 ± 48 nM
12 | O=C(NCCC(O)CN1CCN(c2cccc(Cl)c2Cl)CC1)c1ccc2c(c1)Cc1ccccc1-2 (stereo not shown) [Compound 17] | 319 nM | 1.8 nM | 177 | Ki [5]: 16400 nM; D4/D3 Ki ratio [5]: 9110; 5HT2A/D3 (serotonin 5HT2A receptor): 303; Ki [3, 8]: 1.8 nM; 5HT1A/D3 (serotonin 5HT1A receptor): 1006; partial agonist activity: % stimulation, D3 [6]: 26%; EC50 [6]: 42 ± 1.3 nM; 5HT2c/D (serotonin 5HT2c receptor): 1572
13 | COc1ccccc1N1CCN(CC(O)CCNC(=O)c2ccc3c(c2)Cc2ccccc2-3)CC1 (stereo not shown) [Compound 19, N-(3-Hydroxy-4-(4-(2-methoxyphenyl)piperazin-1-yl)-butyl)-9H-fluorene-2-carboxamide] | 249 nM | 1.8 nM | 138 | Ki [5]: 1230 nM; D4/D3 Ki ratio [5]: 683
14 | CC(=O)OC(CCNC(=O)c1ccc(-c2ccccn2)cc1)CN1CCN(c2cccc(Cl)c2Cl)CC1 (stereo not shown) [Compound 20, 1-(4-(2,3-Dichlorophenyl)piperazin-1-yl)-4-(4-(pyridin-2-yl)-benzamido)-butan-2-yl acetate] | 134 nM | 11.7 nM | 11 | 5HT2A/D3 (serotonin 5HT2A receptor): 7; Ki [3, 8]: 11.7 ± 1 nM; 5HT1A/D3 (serotonin 5HT1A receptor): 10; partial agonist activity: % stimulation, D3 [6]: 47%; EC50 [6]: 3.9 ± 1.4 nM; 5HT2c/D (serotonin 5HT2c receptor): 7
15 | O=C(NCC(O)CCN1CCN(c2cccc(Cl)c2Cl)CC1)c1ccc2c(c1)Cc1ccccc1-2 (stereo not shown) [Compound 22, N-(4-(4-(2,3-Dichlorophenyl)piperazin-1-yl)-2-hydroxybutyl)-9H-fluorene-2-carboxamide] | 84 nM | 2.5 nM | 34 | –
16 | COc1ccccc1N1CCN(CCC(O)CNC(=O)c2ccc3c(c2)Cc2ccccc2-3)CC1 (stereo not shown) [Compound 23, N-(4-(4-(2-Methoxyphenyl)piperazin-1-yl)-2-hydroxybutyl)-9H-fluorene-2-carboxamide] | 68.4 nM | 1.3 nM | 53 | –
17 | COc1ccccc1N1CCN(CC(O)CCNC(=O)c2cc3ccccc3[nH]2)CC1 (stereo not shown) [Compound 35] | 249 nM | 1.37 nM | 181 | Ki [5]: 1920 nM; D4/D3 Ki ratio [5]: 1401
18 | O=C(NCC(O)CCN1CCN(c2cccc(Cl)c2Cl)CC1)c1cc2ccccc2[nH]1 (stereo not shown) [Compound 36] | 28.4 nM | 0.26 nM | 109 | –
19 | COc1ccccc1N1CCN(CCC(O)CNC(=O)c2cc3ccccc3[nH]2)CC1 (stereo not shown) [Compound 37] | 52.5 nM | 0.5 nM | 105 | –
20 | CCCOc1ccccc1N1CCN(CC(O)CCNC(=O)c2cc3ccccc3[nH]2)CC1 (stereo not shown) [Compound 38] | 47.1 nM | 62.1 nM | 1 | –
21 | COc1ccccc1N1CCN(CC(O)CCNC(=O)c2cc3ccccc3s2)CC1 (stereo not shown) [Compound 39] | 337 nM | 4.6 nM | 73 | –
22 | O=C(NCCC(O)CN1CCN(c2cccc(Cl)c2Cl)CC1)c1cc2ccccc2o1 (stereo not shown) [Compound 42] | 185 nM | 0.98 nM | 188 | –
23 | COc1ccccc1N1CCN(CC(O)CCNC(=O)c2cc3ccccc3o2)CC1 (stereo not shown) [Compound 43] | 233 nM | 5.4 nM | 43 | –
24 | COc1ccccc1N1CCN(CC(O)CCNC(=O)c2cc3cc(I)ccc3o2)CC1 (stereo not shown) [Compound 44] | 158 nM | 2.2 nM | 71 | –
25 | O=C(NCCC(O)CN1CCN(c2cccc(Cl)c2Cl)CC1)c1cc2cc(I)ccc2o1 (stereo not shown) [Compound 45] | 697 nM | 3.5 nM | 200 | –
26 | O=C(NCCC(O)CN1CCN(c2cccc(Cl)c2Cl)CC1)c1cc2cc(F)ccc2o1 (stereo not shown) [Compound 46] | 245 nM | 1.6 nM | 149 | –
27 | COc1ccccc1N1CCN(CC(O)CCNC(=O)c2cc3cc(F)ccc3o2)CC1 (stereo not shown) [Compound 47] | 180 nM | 0.65 nM | 276 | –
28 | COc1ccc2oc(C(=O)NCCC(O)CN3CCN(c4cccc(Cl)c4Cl)CC3)cc2c1 (stereo not shown) [Compound 48] | 244 nM | 1.3 nM | 185 | –
29 | COc1ccc2oc(C(=O)NCCC(O)CN3CCN(c4ccccc4OC)CC3)cc2c1 (stereo not shown) [Compound 49] | 174 nM | 1 nM | 172 | –
